Consider 16 compounds from patent publication US20080275085A1, “Piperidine derivative and use thereof” (priority 2007, published 2008).

pIC50: −log10 of the molar value. Structures can show the parent of a compound that is named as a salt.

Broadly, the pIC50 is −log10 of the IC50, conventionally taken in molar units. Read a low pIC50 as a high IC50.

The target in the test is T1, substance P receptor (Homo sapiens, UniProt P25103).
T1 construct: The receptor was prepared from human lymphoblast cells (IM-9); endogenous in cells; host or cells: IM-9 human lymphoblast cells (membrane fraction, 100,000xG precipitate)
T1 sequence (P25103 whole entry): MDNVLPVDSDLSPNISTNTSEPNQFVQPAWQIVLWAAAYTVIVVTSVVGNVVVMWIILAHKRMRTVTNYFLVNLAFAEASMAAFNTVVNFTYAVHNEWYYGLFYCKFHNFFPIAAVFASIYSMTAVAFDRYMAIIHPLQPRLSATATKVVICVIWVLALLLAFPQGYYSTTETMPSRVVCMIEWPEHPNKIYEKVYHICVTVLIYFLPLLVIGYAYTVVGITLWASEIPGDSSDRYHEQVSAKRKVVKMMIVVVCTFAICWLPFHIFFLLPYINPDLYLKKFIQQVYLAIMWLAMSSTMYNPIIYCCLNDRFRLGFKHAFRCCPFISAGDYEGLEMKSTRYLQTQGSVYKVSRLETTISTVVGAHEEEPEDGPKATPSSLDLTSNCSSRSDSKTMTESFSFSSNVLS
The test is described as follows: Radioligand receptor binding inhibitory activity (125I-BHSP binding, receptor from IM-9 cells). Conditions: receptor from human lymphoblast cells (IM-9); radioligand 125I-BHSP; 25° C., 30 min. The protocol: Radioligand Receptor Binding Inhibitory Activity (Binding Inhibitory Activity Using Receptor from Human Lymphoblast Cells (IM-9))
The method of M. A. Cascieri et al., “Molecular Pharmacology, vol. 42, p. 458 (1992)” was modified and used. The receptor was prepared from human lymphoblast cells (IM-9).
IM-9 cells (2×10^5 cells/mL) were inoculated and incubated for 3 days, which was then subjected to centrifugation for 10 min. at 500×G to give cell pellets. The obtained pellets were washed with PBS (GIBCO), disrupted in buffer A (50 mM tris.hydrochloric acid buffer (pH 7.4) containing 120 mM sodium chloride, 5 mM potassium chloride, 2 μg/mL chymostatin, 40 μg/mL bacitracin, 40 μg/mL APMSF, 1 mM ethylenediamine tetra acetic acid) using a polytron.homogenizer [manufactured by Kinematika, Germany], and centrifuged at 100,000×G for 40 min. The precipitated fraction was suspended in buffer B (50 mM Tris-HCl (pH 7.4), 0.02% bovine serum albumin, 2 μg/mL chymostatin, 40 μg/mL bacitracin, 40 μg/mL APMSF, 3 mM MgCl2), which was then cryopreserved (−80° C.) as a receptor specimen.
Buffer B (50 μL) was added to a 96 well microassay plate (CORNING). Thereto was added 50 μL of membrane preparation suspended in buffer B at 250 μg/mL. A measurement buffer (50 μL) containing 2% dimethyl sulfoxide was added to examine total binding; 4 μM unlabeled SP (50 μL) diluted with a measurement buffer containing 2% dimethyl sulfoxide was added to examine non-specific binding; and 50 μL of a test compound (containing 2% dimethyl sulfoxide) diluted with a measurement buffer was added to examine binding inhibitory activity of the test compound. In addition, […] ^125I-BHSP solution (50 μL) was added to each well.
After reaction at 25° C. for 30 min, the cells were rapidly filtered through a GF/C filter plate (PerkinElmer) using a cell harvester (manufactured by PerkinElmer) to quench the reaction, and washed 10 times with 250 μL of 50 mM tris-HCl buffer (pH 7.4) containing 0.02% bovine serum albumin. The GF/C filter plate was dried, MicroScinti 0 (20 μL) was added, and the radioactivity was measured with TopCount (manufactured by PerkinElmer). The GF/C filter plate was immersed in 0.3% polyethylene imine for one day before use.
Specific binding is a value obtained by subtracting nonspecific binding from total binding. The binding inhibitory activity of a test compound is shown by a ratio of a value obtained by subtracting a measurement value with addition of a test compound from the total binding, relative to specific binding.
The antagonistic activity of the compounds obtained in the Examples was determined as a concentration necessary for causing 50% inhibition (IC50 value) under the above-described conditions, and the results shown in Table 34 were obtained.
The radio ligand means substance P labeled with [^125I].
Compound `Cc1cc(F)ccc1[C@@H]1CN(CC(=O)NC2CC2)CC[C@H]1C(=O)N(C)Cc1cc(C(F)(F)F)cc(C(F)(F)F)c1` (relative stereo) [Example 103, (3R*,4R*)—N-[3,5-bis(trifluoromethyl)benzyl]-1-[2-(cyclopropylamino)-2-oxoethyl]-3-(4-fluoro-2-methylphenyl)-N-methylpiperidine-4-carboxamide monohydrochloride] showed a pIC50 of 10.02.

With `Cc1cc(F)ccc1[C@@H]1CN(CC(=O)N2CCC(O)CC2)CC[C@H]1C(=O)N(C)Cc1cc(C(F)(F)F)cc(C(F)(F)F)c1` (relative stereo) [Example 104, (3R*,4R*)—N-[3,5-bis(trifluoromethyl)benzyl]-3-(4-fluoro-2-methylphenyl)-1-[2-(4-hydroxypiperidin-1-yl)-2-oxoethyl]-N-methylpiperidine-4-carboxamide monohydrochloride], the pIC50 was 10.38.

In turn, `Cc1cc(F)ccc1[C@@H]1CN(C2CCN(C(=O)C(N)=O)CC2)CC[C@H]1C(=O)N(C)Cc1cc(C(F)(F)F)cc(C(F)(F)F)c1` (relative stereo) [Example 108, (3R*,4R*)-1′-[amino(oxo)acetyl]-N-[3,5-bis(trifluoromethyl)benzyl]-3-(4-fluoro-2-methylphenyl)-N-methyl-1,4′-bipiperidine-4-carboxamide monohydrochloride] had a pIC50 of 10.59.

`Cc1cc(F)ccc1[C@@H]1CN(C2CCN(C(N)=O)CC2)CC[C@H]1C(=O)N(C)Cc1cc(C(F)(F)F)cc(C(F)(F)F)c1` (relative stereo) [Example 109, (3R*,4R*)—N^4-[3,5-bis(trifluoromethyl)benzyl]-3-(4-fluoro-2-methylphenyl)-N^4-methyl-1,4′-bipiperidine-1′,4-dicarboxamide monohydrochloride] had a pIC50 of 10.64. This pIC50 and that of the compound before are within 0.2 log units of each other.

For `Cc1cc(F)ccc1[C@@H]1CN(CC(N)=O)CC[C@H]1C(=O)N(C)Cc1cc(C(F)(F)F)cc(C(F)(F)F)c1` (relative stereo) [Example 112, (3R*,4R*)-1-(2-amino-2-oxoethyl)-N-[3,5-bis(trifluoromethyl)benzyl]-3-(4-fluoro-2-methylphenyl)-N-methylpiperidine-4-carboxamide monohydrochloride], the pIC50 was 10.42. This pIC50 is 0.22 log units lower than that of the compound before.

Compound `Cc1cc(F)ccc1[C@@H]1CN(C(C)(C)C(N)=O)CC[C@H]1C(=O)N(C)Cc1cc(C(F)(F)F)cc(C(F)(F)F)c1` (relative stereo) [Example 113, (3R*,4R*)-1-(2-amino-1,1-dimethyl-2-oxoethyl)-N-[3,5-bis(trifluoromethyl)benzyl]-3-(4-fluoro-2-methylphenyl)-N-methylpiperidine-4-carboxamide monohydrochloride] had a pIC50 of 10.21. This pIC50 lies 0.21 log units lower than the previous one.

Compound `Cc1cc(F)ccc1[C@@H]1CN(C(C)CO)CC[C@H]1C(=O)N(C)Cc1cc(C(F)(F)F)cc(C(F)(F)F)c1` (relative stereo) [Example 120, (3R*,4R*)—N-[3,5-bis(trifluoromethyl)benzyl]-3-(4-fluoro-2-methylphenyl)-1-(2-hydroxy-1-methylethyl)-N-methylpiperidine-4-carboxamide monohydrochloride] showed a pIC50 of 10.37.

The compound `Cc1cc(F)ccc1[C@@H]1CN(CCC(C)(C)O)CC[C@H]1C(=O)N(C)Cc1cc(C(F)(F)F)cc(C(F)(F)F)c1` (relative stereo) [Example 123, (3R*,4R*)—N-[3,5-bis(trifluoromethyl)benzyl]-3-(4-fluoro-2-methylphenyl)-1-(3-hydroxy-3-methylbutyl)-N-methylpiperidine-4-carboxamide monohydrochloride] had a pIC50 of 10.60.

`CC(=O)Nc1ccc(N2CC[C@@H](C(=O)N(C)Cc3cc(C(F)(F)F)cc(C(F)(F)F)c3)[C@H](c3ccc(F)cc3C)C2)nc1` (relative stereo) [Example 129, (3R*,4R*)-1-[5-(acetylamino)pyridin-2-yl]-N-[3,5-bis(trifluoromethyl)benzyl]-3-(4-fluoro-2-methylphenyl)-N-methylpiperidine-4-carboxamide monohydrochloride] had a pIC50 of 10.02.

With `Cc1cc(F)ccc1[C@@H]1CN(S(=O)(=O)CCN2CCOCC2)CC[C@H]1C(=O)N(C)Cc1cc(C(F)(F)F)cc(C(F)(F)F)c1` (relative stereo) [Example 139, (3R*,4R*)—N-[3,5-bis(trifluoromethyl)benzyl]-3-(4-fluoro-2-methylphenyl)-N-methyl-1-[(2-morpholin-4-ylethyl)sulfonyl]piperidine-4-carboxamide monohydrochloride], the pIC50 is 10.43.

Compound `Cc1cc(F)ccc1[C@@H]1CN(CC(N)=O)CC[C@H]1C(=O)N(Cc1cc(C(F)(F)F)cc(C(F)(F)F)c1)C1CC1` (relative stereo) [Example 169, (3R*,4R*)-1-(2-amino-2-oxoethyl)-N-[3,5-bis(trifluoromethyl)benzyl]-N-cyclopropyl-3-(4-fluoro-2-methylphenyl)piperidine-4-carboxamide monohydrochloride] showed a pIC50 of 10.11. This pIC50 is 0.32 log units lower than that of the compound before.

Consider `Cc1ccsc1C1CN(C(=O)C2CCN(C(=O)CO)CC2)CCC1C(=O)N(C)[C@@H](C)c1cc(C(F)(F)F)cc(C(F)(F)F)c1` (single isomer, unassigned; more polar) [Example 176, (3R*,4S*)—N-{(1S)-1-[3,5-bis(trifluoromethyl)phenyl]ethyl}-1-[(1-glycoloylpiperidin-4-yl)carbonyl]-N-methyl-3-(3-methyl-2-thienyl)piperidine-4-carboxamide (more polar)], for which the pIC50 was 10.29. The pIC50 values of the last two compounds are within 0.2 log units of each other.

As for `Cc1ccccc1[C@H]1CN(C(=O)C2CCN(C(=O)CO)CC2)CC[C@@H]1C(=O)N(C)Cc1cc(C(F)(F)F)cc(C(F)(F)F)c1` [Example 18, (3S,4S)—N-[3,5-bis(trifluoromethyl)benzyl]-1-[[1-glycoloylpiperidin-4-yl]carbonyl]-N-methyl-3-(2-methylphenyl)piperidine-4-carboxamide], the pIC50 is 10.62.

`Cc1ccccc1[C@H]1CN(C(=O)C2CCN(C(=O)[C@H](C)O)CC2)CC[C@@H]1C(=O)N(C)Cc1cc(C(F)(F)F)cc(C(F)(F)F)c1` [Example 28, (3S,4S)—N-(3,5-bis(trifluoromethyl)benzyl]-1-({1-[(2S)-2-hydroxypropanoyl]piperidin-4-yl}carbonyl)-N-methyl-3-(2-methylphenyl)piperidine-4-carboxamide] gave a pIC50 of 10.66.

Regarding `Cc1ccccc1[C@H]1CN(C(=O)C2CCN(C(=O)[C@@H](C)O)CC2)CC[C@@H]1C(=O)N(C)Cc1cc(C(F)(F)F)cc(C(F)(F)F)c1` [Example 29, (3S,4S)—N-[3,5-bis(trifluoromethyl)benzyl]-1-({1-[(2R)-2-hydroxypropanoyl]piperidin-4-yl}carbonyl)-N-methyl-3-(2-methylphenyl)piperidine-4-carboxamide], the pIC50 is 10.64.

Take `Cc1ccccc1[C@H]1CN(C(=O)CN2C(=O)OC(C)(C)C2=O)CC[C@@H]1C(=O)N(C)[C@@H](C)c1cc(C(F)(F)F)cc(C(F)(F)F)c1` [Example 30, (3S,4S)—N-{(1S)-1-[3,5-bis(trifluoromethyl)phenyl]ethyl}-1-[(5,5-dimethyl-2,4-dioxo-1,3-oxazolidin-3-yl)acetyl]-N-methyl-3-(2-methylphenyl)piperidine-4-carboxamide]: the pIC50 was 10.24.
